Data as given in US11590130B2, “Combinations of a tubulin polymerization inhibitor and a poly (ADP-ribose) polymerase (PARP) inhibitor for use in the treatment of cancer” (NOVIGA RESEARCH AB, priority 2018, dated 2023).

How the values were obtained:
[1] = system: patient-derived xenograft of ovarian cancer (Ov10584); test: Anti-tumor efficacy of NOV202 alone and in combination with olaparib in patient-derived xenograft of ovarian cancer (Example 1); assay type: in vivo; settings: for T/C (tumor/control) value: NMRI:nu/nu mice, Ov10584 s.c., once a day for 14 days (days 8-22), combination same dosage and schedule
Text: A Study of Anti-Tumor Efficacy of NOV202 Alone and in Combination with Olaparib in a Patient-Derived Xenograft of Ovarian Cancer (Ov10584)
NMRI:nu/nu female (Janvier) mice (8 weeks old) were used as follows: 4 animals in the vehicle group, 4 animals in NOV202 group, Olaparib group and in the combination group of NOV202 and olaparib, respectively. NOV202 was synthesized as described in WO 2012/127032. Olaparib was purchased from LC Laboratories. The patient-derived xenograft Ov10584 was used at passage number 7. All mice received tissue fragments of 2×2 mm subcutaneously at day 0, and tumors were allowed to reach palpable sizes of 118 mm^3 (mean) (the study day 8) prior to start the treatments. NOV202 group was administered PO at a dose 30 mg/kg and olaparib group was administered PO at a dose 100 mg/kg. The combination of NOV202 and olaparib group had the same dosage and schedule as in monotherapy. NOV202 was given in the morning (5 ml/kg) and olaparib in the afternoon (10 ml/kg). All three groups were administered 14 days once a day (days 8-22). The tumor volumes and body weights of animals were measured at regular intervals (day 7, 9, 13, 15, 19, 22, 27, all groups, and continued to measure the combination group day 29, 33, 36, 40, 43, 47, 50, 54, 57).

[2] = system: patient-derived xenograft Ov10584; test: Anti-tumor efficacy of NOV202 with olaparib vs. plinabulin with olaparib in patient-derived xenograft of ovarian cancer (Example 2); assay type: in vivo; settings: NMRI:nu/nu mice, Ov10584 s.c.; NOV202 30 mg/kg PO and olaparib 100 mg/kg PO once a day days 6-19; plinabulin 7.5 mg/kg i.p. days 1, 4, 8, 11, 15; combinations same dosage and schedule
Text: A Study of Anti-Tumor Efficacy of Combination of NOV202 with Olaparib Vs. Combination Plinabulin with Olaparib in a Patient-Derived Xenograft of Ovarian Cancer ([…])
NMRI:nu/nu female (Janvier) mice (8 weeks old) were used as follows: 4 animals in the vehicle group, 4 animals in NOV202 group, olaparib group, plinabulin group, in the combination group of NOV202 and Olaparib, and in the combination group of plinabulin and olaparib, respectively. NOV202 was synthesized as described in WO 2012/127032. Olaparib was purchased from LC Laboratories, and plinabulin was purchased from Sellechem. The patient-derived xenograft Ov10584 was used at passage number 4. All mice received tissue fragments of 2×2 mm subcutaneously into the left flank at day 0, and tumors were allowed to reach palpable sizes of 108 mm^3 (mean) (the study day 6) prior to start the treatments. NOV202 group was administered PO at a dose 30 mg/kg and olaparib group was administered PO at a dose 100 mg/kg, and plinabulin was administered i.p. at a dose 7.5 mg/kg. The combination of NOV202 and olaparib group had the same dosage and schedule as in monotherapy, NOV202 was given in the morning (5 ml/kg) and olaparib in the afternoon (10 ml/kg). The combination of plinabulin and olaparib group had also the same dosage and schedule as in monotherapy. NOV202 and olaparib was administered 14 days once a day (days 6-19), and plinabulin was administered days 1, 4, 8, 11, 15 once a day. The tumor volumes and body weights of animals were measured at regular intervals (day 6, 7, 9, 12, 14, 16, 19, 23, 26 and 29), all groups.

[3] = system: human OC xenograft model; test: In vivo efficacy study in a human OC xenograft model
Text: Development of the tumour vasculature system is essential to tumour growth and metastatic spread of malignant cells. The rationale behind using vasculature targeting agents in anti-cancer therapy is that the cancer cells will be deprived of essential nutrients and oxygen supply for their growth and spread, thereby improving treatment outcome.

[4] = system: ovarian cancer (OC) cell line A2780; test: Anti-proliferative activity in human cancer cell lines; assay type: cell-based; settings: A2780 cells
Text: (§1) Compounds of Formula I, including NOV202, exerts its action by inhibition of tubulin polymerization and thereby the assembly of microtubule structures, which cause a cell cycle arrest and cell death via apoptosis. […] The A2780/Adr multidrug resistant OC cell line overexpresses the P-glycoprotein efflux transporters which confer multidrug resistance.

[5] = system: A2780/Adr multidrug resistant OC cell line; test: Activity in multidrug resistant OC cells; assay type: cell-based, human; settings: A2780/Adr overexpresses P-glycoprotein efflux transporters
Text: as §1

[6] = NOV202 30 mg/kg PO, olaparib 100 mg/kg PO

SMILES: O=C(c1cc(Cc2n[nH]c(=O)c3ccccc23)ccc1F)N1CCN(C(=O)C2CC2)CC1 [olaparib, 4-(3-{[4-(cyclopropylcarbonyl)piperazin-1-yl]carbonyl}-4-fluorobenzyl)phthalazin-1(2H)-one, reference compound]
- T/C (tumor/control) value [1, 6]: 20%
- T/C (tumor/control) value [2]: 45%

SMILES: COc1ccc2[nH]cc(CCNc3nccc(Nc4cccc5c4ccn5C)n3)c2c1 [NOV202, N^2-[2-(5-methoxy-1H-indol-3-yl)ethyl]-N^4-(1-methyl-1H-indol-4-yl)pyrimidine-2,4-diamine]
- T/C (tumor/control) value [1, 6]: 37%
- tolerability ([1]; daily treatment for 14 days, NOV202 30 mg/kg PO, olaparib 100 mg/kg PO): well tolerated
- body weight loss ([1]; one day after treatment stop, 30 mg/kg NOV202 daily for 14 days, mice recovered soon): 6%
- T/C (tumor/control) value [2]: 32%
- suppression of tumour growth ([3]; human OC xenograft, similar to paclitaxel in this model): up to 80%
- tolerability ([3]; oral gavage over a period of 20 days): well tolerated
- anti-proliferative activity [4]: very potent
- effectiveness in multidrug resistant versus isogenic non-resistant OC cells [5]: as effective in multidrug resistant OC cells as in the isogenic (drug sensitive variant) non-resistant OC cells

SMILES: CC(C)(C)c1[nH]cnc1/C=c1\[nH]c(=O)/c(=C/c2ccccc2)[nH]c1=O [plinabulin, (3Z,6Z)-3-Benzylidene-6-{[5-(2-methyl-2-propanyl)-1H-imidazol-4-yl]methylene}-2,5-piperazinedione]
- T/C (tumor/control) value [2]: 58%
